Test results as given in patent US11339161B2, “Triazolo pyridines as modulators of gamma-secretase” (Boehringer Ingelheim International GmbH, priority 2017, dated 2022).
Where two headings read alike, the source gives them in different places.

Assays:
[1] = molecular target: PDGFRA (PDGFR alpha) (Homo sapiens, UniProt P16234); assay: Z'-LYTE SelectScreen biochemical kinase assay PDGFRA (PDGFR alpha)
Description: (§1) Thermo Fisher Scientific SelectScreen™ Biochemical Kinase Profiling Service Z′-LYTE™ Screening Protocol and Assay Conditions Assay Theory
(§2) The […] biochemical assay employs a fluorescence-based, coupled-enzyme format and is based on the differential sensitivity of phosphorylated and non-phosphorylated peptides to proteolytic cleavage. The peptide substrate is labeled with two fluorophores—one at each end—that make up a FRET pair. In the primary reaction, the kinase transfers the gamma-phosphate of ATP to a single tyrosine, serine or threonine residue in a synthetic FRET-peptide. In the secondary reaction, a site-specific protease recognizes and cleaves non-phosphorylated FRET-peptides. Phosphorylation of FRET-peptides suppresses cleavage by the Development Reagent. Cleavage disrupts FRET between the donor (i.e., coumarin) and acceptor (i.e., fluorescein) fluorophores on the FRET-peptide, whereas uncleaved, phosphorylated FRET-peptides maintain FRET. A ratiometric method, which calculates the ratio (Emission Ratio=Coumarin emission (445 nm)/Fluorescein emission (520 nm)) of donor emission to acceptor emission after excitation of the donor fluorophore at 400 nm, is used to quantitate reaction progress, as shown in the equation below. A significant benefit of this ratiometric method for quantitating reaction progress is the elimination of well-to-well variations in FRET-peptide concentration and signal intensities. As a result, the assay yields very high Z′-factor values (>0.7) at a low percent phosphorylation. Both cleaved and uncleaved FRET-peptides contribute to the fluorescence signals and therefore to the Emission Ratio. The extent of phosphorylation of the FRET-peptide can be calculated from the Emission Ratio. The Emission Ratio will remain low if the FRET-peptide is phosphorylated (i.e., no kinase inhibition) and will be high if the FRET-peptide is non-phosphorylated (i.e., kinase inhibition).
(§3) The Test Compounds are screened in 1% DMSO (final) in the well. For 10 point titrations, 3-fold serial dilutions are conducted from the starting concentration of the customer's choosing.
(§4) All Peptide/Kinase Mixtures are diluted to a 2× working concentration in the appropriate Kinase Buffer (see section Kinase Specific Assay Conditions for a complete description).
(§5) All ATP Solutions are diluted to a 4× working concentration in Kinase Buffer (50 mM HEPES pH 7.5, 0.01% BRIJ-35, 10 mM MgCl2, 1 mM EGTA). ATP Km apparent is previously determined using a Z″-LYTE assay.
(§6) The Development Reagent is diluted in Development Buffer (see section Kinase-Specific Assay Conditions—Direct and Cascade for a complete description).
(§7) Bar-coded Corning, low volume NBS, black 384-well plate (Corning Cat. #4514) • 1. 100 nL—100× Test Compound in 100% DMSO • 2. 2.4 μL—Kinase buffer • 3. 5 μL—2× Peptide/Kinase Mixture • 4. 2.5 μL—4×ATP Solution • 5. 30—second plate shake • 6. 60—minute Kinase Reaction incubation at room temperature • 7. 5 μL—Development Reagent Solution • 8. 30—second plate shake • 9. 60—minute Development Reaction incubation at room temperature • 10. Read on fluorescence plate reader and analyze the data Z′-LYTE Assay Controls
(§8) SelectScreen Kinase Profiling Service uses XLfit from IDBS. The dose response curve is curve fit to model number 205 (sigmoidal dose-response model).
The 2×PDGFRA (PDGFR alpha)/Tyr 04 mixture is prepared in 50 mM HEPES pH 7.5, 0.01% BRIJ-35, 10 mM MgCl2, 4 mM MnCl2, 1 mM EGTA, 2 mM DTT. The final 10 μL Kinase Reaction consists of 1.54-22.6 ng PDGFRA (PDGFR alpha) and 2 μM Tyr 04 in 50 mM HEPES pH 7.5, 0.01% BRIJ-35, 10 mM MgCl2, 2 mM MnCl2, 1 mM EGTA, 1 mM DTT. After the 1 hour Kinase Reaction incubation, 5 μL of a 1:64 dilution of Development Reagent B is added.

[2] = molecular target: CSF1R (FMS) (Homo sapiens, UniProt P07333); assay: Z'-LYTE SelectScreen biochemical kinase assay CSF1R (FMS)
CSF1R (FMS), sequence (P07333 20-972): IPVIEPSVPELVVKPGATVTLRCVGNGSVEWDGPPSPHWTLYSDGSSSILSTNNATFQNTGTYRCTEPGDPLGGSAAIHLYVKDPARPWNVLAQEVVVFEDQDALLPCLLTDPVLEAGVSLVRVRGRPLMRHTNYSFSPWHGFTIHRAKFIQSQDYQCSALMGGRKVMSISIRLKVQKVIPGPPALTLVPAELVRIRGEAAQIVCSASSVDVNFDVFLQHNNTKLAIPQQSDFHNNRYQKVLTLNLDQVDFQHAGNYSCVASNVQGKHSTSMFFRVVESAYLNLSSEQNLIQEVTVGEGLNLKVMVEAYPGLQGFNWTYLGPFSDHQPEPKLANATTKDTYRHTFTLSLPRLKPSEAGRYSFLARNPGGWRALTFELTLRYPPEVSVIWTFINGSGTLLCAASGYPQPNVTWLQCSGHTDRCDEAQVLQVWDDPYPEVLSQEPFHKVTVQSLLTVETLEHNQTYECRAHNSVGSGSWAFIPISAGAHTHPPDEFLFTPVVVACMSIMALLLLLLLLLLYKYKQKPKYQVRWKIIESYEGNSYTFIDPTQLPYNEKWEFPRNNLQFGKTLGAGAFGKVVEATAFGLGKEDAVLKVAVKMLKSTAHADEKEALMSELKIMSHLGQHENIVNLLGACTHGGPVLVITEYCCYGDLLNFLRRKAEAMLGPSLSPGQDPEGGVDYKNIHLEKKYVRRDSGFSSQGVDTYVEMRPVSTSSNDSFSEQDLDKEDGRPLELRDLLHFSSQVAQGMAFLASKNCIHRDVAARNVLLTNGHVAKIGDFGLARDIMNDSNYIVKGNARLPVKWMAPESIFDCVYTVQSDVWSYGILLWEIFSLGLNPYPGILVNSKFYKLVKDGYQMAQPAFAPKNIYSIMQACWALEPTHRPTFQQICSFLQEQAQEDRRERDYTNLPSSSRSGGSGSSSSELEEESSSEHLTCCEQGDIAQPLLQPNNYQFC
Description: as §1, §2, §3, §4, §5, §6, §7, §8
The 2×CSF1R (FMS)/Tyr 01 mixture is prepared in 50 mM HEPES pH 7.5, 0.01% BRIJ-35, 10 mM MgCl2, 1 mM EGTA. The final 10 μL Kinase Reaction consists of 0.2-40 ng CSF1R (FMS) and 2 μM Tyr 01 in 50 mM HEPES pH 7.5, 0.01% BRIJ-35, 10 mM MgCl2, 1 mM EGTA. After the 1 hour Kinase Reaction incubation, 5 μL of a 1:256 dilution of Development Reagent B is added.

[3] = molecular target: T1, AURKA (Aurora A) (Homo sapiens, UniProt O14965); assay: Z'-LYTE SelectScreen biochemical kinase assay AURKA (Aurora A)
T1 sequence (O14965 1-403): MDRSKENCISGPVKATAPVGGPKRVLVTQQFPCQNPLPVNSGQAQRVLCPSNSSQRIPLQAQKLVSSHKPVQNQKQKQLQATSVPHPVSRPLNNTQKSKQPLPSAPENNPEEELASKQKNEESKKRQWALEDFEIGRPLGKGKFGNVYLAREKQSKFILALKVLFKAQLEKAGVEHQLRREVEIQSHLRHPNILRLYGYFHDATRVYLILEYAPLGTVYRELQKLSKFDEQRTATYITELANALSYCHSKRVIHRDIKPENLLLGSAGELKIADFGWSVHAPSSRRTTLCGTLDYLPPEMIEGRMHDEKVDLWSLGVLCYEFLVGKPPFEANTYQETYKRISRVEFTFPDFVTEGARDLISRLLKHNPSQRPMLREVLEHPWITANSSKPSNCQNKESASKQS
Description: as §1, §2, §3, §4, §5, §6, §7, §8
The 2×AURKA (Aurora A)/Ser/Thr 01 mixture is prepared in 50 mM HEPES pH 7.5, 0.01% BRIJ-35, 10 mM MgCl2, 1 mM EGTA. The final 10 μL Kinase Reaction consists of 0.91-8.56 ng AURKA (Aurora A) and 2 μM Ser/Thr 01 in 50 mM HEPES pH 7.5, 0.01% BRIJ-35, 10 mM MgCl2, 1 mM EGTA. After the 1 hour Kinase Reaction incubation, 5 μL of a 1:4096 dilution of Development Reagent A is added.

[4] = 10 μmolar compound concentration, ATP at Km app, read-out: PDGFRA (PDGFR alpha) inhibition
[5] = read-out: % Inhibition mean PDGFRA (PDGFR alpha)
[6] = 10 μmolar compound concentration, ATP at Km app, read-out: CSF1R (FMS) inhibition
[7] = read-out: % Inhibition mean CSF1R (FMS)
[8] = 10 μmolar compound concentration, ATP at Km app, read-out: AURKA (Aurora A) inhibition
[9] = read-out: % Inhibition mean AURKA (Aurora A)

PDGFRA (PDGFR alpha), sequence (P16234 24-1089): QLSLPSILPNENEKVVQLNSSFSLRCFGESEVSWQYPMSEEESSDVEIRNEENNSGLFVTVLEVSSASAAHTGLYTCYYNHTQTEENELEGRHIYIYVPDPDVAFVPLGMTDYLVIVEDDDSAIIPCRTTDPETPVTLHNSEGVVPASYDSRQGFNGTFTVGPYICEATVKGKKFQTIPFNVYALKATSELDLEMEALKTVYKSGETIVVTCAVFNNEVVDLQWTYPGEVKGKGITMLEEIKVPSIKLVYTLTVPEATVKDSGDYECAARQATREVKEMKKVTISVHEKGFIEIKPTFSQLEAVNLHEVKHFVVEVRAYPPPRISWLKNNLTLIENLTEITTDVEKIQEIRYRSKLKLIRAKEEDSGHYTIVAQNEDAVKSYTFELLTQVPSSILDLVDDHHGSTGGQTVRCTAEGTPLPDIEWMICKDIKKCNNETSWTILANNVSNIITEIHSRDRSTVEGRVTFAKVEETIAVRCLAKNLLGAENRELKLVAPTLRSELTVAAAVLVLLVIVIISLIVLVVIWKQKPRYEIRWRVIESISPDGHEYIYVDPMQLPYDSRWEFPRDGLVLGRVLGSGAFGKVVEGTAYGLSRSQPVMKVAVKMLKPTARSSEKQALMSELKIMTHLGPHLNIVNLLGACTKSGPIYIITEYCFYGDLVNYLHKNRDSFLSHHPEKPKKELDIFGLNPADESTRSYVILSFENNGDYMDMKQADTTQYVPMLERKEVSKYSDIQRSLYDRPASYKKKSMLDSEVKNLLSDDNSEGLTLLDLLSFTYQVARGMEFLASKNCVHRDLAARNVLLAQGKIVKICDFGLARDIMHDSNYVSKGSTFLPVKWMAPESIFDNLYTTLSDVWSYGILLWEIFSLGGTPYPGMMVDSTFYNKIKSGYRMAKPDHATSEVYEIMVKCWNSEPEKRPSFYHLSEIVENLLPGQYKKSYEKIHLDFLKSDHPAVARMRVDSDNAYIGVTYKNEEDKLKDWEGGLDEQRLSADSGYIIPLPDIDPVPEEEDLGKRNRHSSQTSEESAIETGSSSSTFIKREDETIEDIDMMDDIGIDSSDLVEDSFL

Row | SMILES | inhibition at 10 µM [1, 4] | inhibition at 10 µM [1, 5] | inhibition at 10 µM [2, 6] | inhibition at 10 µM [2, 7] | inhibition at 10 µM [3, 8] | inhibition at 10 µM [3, 9]
1 | CCCn1ncc2c1CCC(Nc1nc3c(-c4ccc(F)cc4C)cccn3n1)C2 (stereo not drawn) [Example 43, [8-(4-fluoro-2-methyl-phenyl)-[1,2,4]triazolo[1,5-a]pyridine-2-yl]-(1-propyl-4,5,6,7-tetrahydro-1H-indazol-5-yl)-amine] | < 40% | 16% | < 40% | 28% | < 40% | -17%
2 | CCn1ncc2c1CC[C@@H](Nc1nc3c(-c4ccc(F)c(Cl)c4)cccn3n1)C2 [Example R-61, (R)-[8-(3-Chloro-4-fluoro-phenyl)-[1,2,4]triazolo[1,5-a]pyridine-2-yl]-(1-ethyl-4,5,6,7-tetrahydro-1H-indazol-5-yl)-amine] | < 40% | 18% | < 40% | 18% | < 40% | -8%
3 | CCn1ncc2c1CCC(Nc1nc3c(-c4ccc(C)nc4)cccn3n1)C2 (stereo not drawn) [Example 67, (1-Ethyl-4,5,6,7-tetrahydro-1H-indazol-5-yl)-[8-(6-methyl-pyridin-3-yl)-[1,2,4]triazolo[1,5-a]pyridine-2-yl]-amine] | < 40% | 20% | < 40% | 29% | < 40% | 6%
4 | CCn1ncc2c1CCC(Nc1nc3c(-c4cncc(OC)c4)cccn3n1)C2 (stereo not drawn) [Example 70, (1-Ethyl-4,5,6,7-tetrahydro-1H-indazol-5-yl)-[8-(5-methoxy-pyridin-3-yl)-[1,2,4]triazolo[1,5-a]pyridine-2-yl]-amine] | < 40% | 17% | > 80% | 83% | 40 to 80% | 51%
